How the values were obtained:
[1] = tested on: naturally aged C57BL6J mice; assay type: in vivo, mouse; details: mouse, in vivo
[2] = tested on: naturally aged mice; assay: Anti-aging evaluation in naturally aged mice, Example 31, Table 55; assay type: in vivo, mouse; details: for Femur Ctsk mRNA / Kidney Agtr1a mRNA / Liver IL6 mRNA / Liver MMP3 mRNA / Liver p16 mRNA / Open Field Test Time in Center: untreated = 100%; for Heart Sur2a mRNA / Joint Col2a1 mRNA / Skin Col1a1 mRNA / Skin SDF1 mRNA: untreated = 1.0; for Muscle Mass: untreated 0.64 g; for Fat Mass: untreated 0.82 g; for Cataract incidence: untreated 83%;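 on all read-outs here: Vehicle-dosed control mice received solution alone at matching volume, values compare test-compound-treated aged mice against that control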
[3] = tested on: bleomycin-induced pulmonary fibrosis mice; assay: Bleomycin-induced pulmonary fibrosis mice, Example 31, Table 56; assay type: in vivo, mouse; details: untreated = 100%
Procedure: (§1) The control group was administered only the solution in the same volume. After the end of drug administration, the method described in each example below was performed. Liver, kidney, skin, knee joint, heart, and femur tissues were collected from mice in which natural aging was induced in the same manner as in Examples 7-2 and 7-6 of WO2023-085787 A1. Lung tissues were collected from mice in which pulmonary fibrosis was induced using the same method as in Example 24-1. Liver tissues were collected from mice in which hepatic fibrosis was induced using the same method as in Example 26, and total RNA was extracted. qRT-PCR was performed and analyzed using the synthesized cDNA. […] The mRNA amounts of p16, MMP3, and IL6 after natural aging was induced were calculated as 100% and compared with the mRNA amounts of p16, MMP3, and IL6 after treatment with the test compound. In addition, an open field test for the analysis of aging-related frailty, agtr1a mRNA analysis for kidney damage and disease evaluation, col1a1 and SDF1 mRNA analysis for skin aging evaluation such as wrinkles/loss of elasticity/hyperpigmentation, col2a1 mRNA analysis for evaluating joint aging such as osteoarthritis, sur2a mRNA analysis for evaluating cardiac aging such as decreased cardiac load resistance, ctsk mRNA analysis for evaluating bone diseases due to aging such as osteoporosis, muscle tissue weight for analyzing sarcopenia, fat tissue weight for analyzing lipoatrophy, and cataract incidence analysis were performed in mice. For cataract incidence analysis, the drug was administered twice a week under the conditions specified above, and biweekly examinations were conducted until death.
The table below quantitatively presents the evaluation results for each item in mice with bleomycin-induced pulmonary fibrosis, untreated and treated with the test compound.

[4] = tested on: senescent cells; assay: Viability of senescent cells (CellTiter-Glo), Example 17, Table 13; details: Homo sapiens, read-out: Survival (%)
Procedure: Cells induced to undergo senescence by doxorubicin treatment were treated with test compound at designated concentrations and measured using the CellTiter-Glo Luminescent Cell Viability Assay (Promega).

[5] = tested on: carbon tetrachloride-induced liver fibrosis mice; assay: Carbon tetrachloride-induced liver fibrosis mice, Example 31, Table 57; assay type: in vivo, mouse; details: CCl4-induced liver fibrosis mice, untreated = 100%
Procedure: as §1

[6] = tested on: senescent A549 cells; assay: Viability of senescent A549 cells (CellTiter-Glo), Example 18, Table 15; details: Homo sapiens, A549, read-out: Survival (%)
Procedure: Senescence-induced cancer cells treated with doxorubicin were treated with the test compound at designated concentrations, and cell viability was measured using the CellTiter-Glo Luminescent Cell Viability Assay (Promega).

Compound | Femur Ctsk mRNA [2] | Heart Sur2a mRNA [2] | Joint Col2a1 mRNA [2] | Kidney Agtr1a mRNA [2] | Liver IL6 mRNA [2] | Liver MMP3 mRNA [2] | Liver p16 mRNA [2] | Open Field Test Time in Center [2] | Skin Col1a1 mRNA [2] | Skin SDF1 mRNA [2] | Muscle Mass [2] | Fat Mass [2] | Cataract incidence [2] | Lung p16 mRNA [3] | Col1a1 mRNA [3] | viability at 1.1 µM [4] | Liver p16 mRNA [5] | Col1a1 mRNA [5] | viability at 1.1 µM [6] | viability at 10 µM [6] | other results
COC(=O)[C@]12CCC(C)(C)C[C@H]1[C@H]1C(=O)C[C@@H]3[C@@]4(C)C=C(C#N)C(=O)C(C)(C)[C@@H]4CC[C@@]3(C)[C@]1(C)CC2 [LX-2301] |  |  |  |  |  |  |  |  |  |  |  |  |  |  |  |  |  |  |  |  | wound/damage healing improvement [1]: damage treatment and recovery
CC1(C)CC[C@]2(C(=O)NCC(F)(F)F)CC[C@]3(C)[C@H](C(=O)C[C@@H]4[C@@]5(C)C=C(C#N)C(=O)C(C)(C)[C@@H]5CC[C@]43C)[C@@H]2C1 [LX-2302, Dihydro-CDDO-Trifluoroethyl Amide] |  |  |  |  |  |  |  |  |  |  |  |  |  |  |  |  |  |  |  |  | wound/damage healing improvement [1]: damage treatment and recovery
CC1(C)CC[C@]2(NS(C)(=O)=O)CC[C@]3(C)[C@H](C(=O)C[C@@H]4[C@@]5(C)C=C(C#N)C(=O)C(C)(C)[C@@H]5CC[C@]43C)[C@@H]2C1 [LX-2306] |  |  |  |  |  |  |  |  |  |  |  |  |  |  |  |  |  |  |  |  | wound/damage healing improvement [1]: damage treatment and recovery
COC(=O)C[C@]12CCC(C)(C)C[C@H]1[C@H]1C(=O)C[C@@H]3[C@@]4(C)C=C(C#N)C(=O)C(C)(C)[C@@H]4CC[C@@]3(C)[C@]1(C)CC2 [LX-2307] |  |  |  |  |  |  |  |  |  |  |  |  |  |  |  |  |  |  |  |  | wound/damage healing improvement [1]: damage treatment and recovery
C[C@]12C=C(C#N)C(=O)C3(CC=CC3)C1=CC[C@@H]1[C@@H]2CC[C@]2(C)C(=O)CC[C@@H]12 [LX-2308] |  |  |  |  |  |  |  |  |  |  |  |  |  |  |  |  |  |  |  |  | wound/damage healing improvement [1]: damage treatment and recovery
CC1(C)CC[C@]2(C(=O)NO)CC[C@]3(C)[C@H](C(=O)C[C@@H]4[C@@]5(C)C=C(C#N)C(=O)C(C)(C)[C@@H]5CC[C@]43C)[C@@H]2C1 [LX-2309] |  |  |  |  |  |  |  |  |  |  |  |  |  |  |  |  |  |  |  |  | wound/damage healing improvement [1]: damage treatment and recovery
CN(NC(=O)CC(=O)NN(C)C(=S)c1ccccc1)C(=S)c1ccccc1 [LX-6501, Elesclomol] | 64% | 1.8 fold | 2.7 fold | 49% | 46% | 56% | 38% | 214% | 1.9 Fold | 2.2 fold | 0.71 g | 0.89 g | 48% | 68 (±4.4) % | 75 (±5.3) % | 94.5% | 34 (±3.0) % | 75 (±2.5) % | 97% | 62.4% | viability at 10 µM [4]: 71.5%; viability at 30 µM [4]: 7.8%; viability at 30 µM [6]: 13%
NC(=O)c1ncn([C@@H]2O[C@H](CO)[C@@H](O)[C@H]2O)n1 [LX-6537, Ribavirin] | 67% | 1.6 fold | 2.2 fold | 73% | 48% | 67% | 74% | 177% | 1.9 Fold | 1.4 fold | 0.68 g | 0.85 g | 72% | 64 (±3.2) % | 67 (±3.9) % | 90.9% | 77 (±5.7) % | 81 (±4.1) % | 102% | 66.8% | viability at 10 µM [4]: 67.3%; viability at 30 µM [4]: 12.2%; viability at 30 µM [6]: 2.4%
C=C1CC[C@@H]2[C@](C)(CO)[C@H](O)CC[C@@]2(C)[C@@H]1C/C=C1/C(=O)OC[C@H]1O [LX-6800, Andrographolide] | 58% | 2.3 fold | 2.4 fold | 78% | 56% | 77% | 73% | 154% | 2.1 Fold | 2.0 fold | 0.70 g | 0.91 g | 75% | 78 (±3.8) % | 62 (±3.6) % | 81.6% | 80 (±4.9) % | 76 (±2.7) % | 80.9% | 70.9% | viability at 10 µM [4]: 56.5%; viability at 30 µM [4]: 2.2%; viability at 30 µM [6]: 43.8%; viability at 90 µM [6]: 17%
C[S+]([O-])CCCCN=C=S (centres unmarked) [LX-7103, Sulforaphane] | 65% | 2.1 fold | 2.3 fold | 67% | 67% | 79% | 65% | 218% | 2.6 Fold | 2.6 fold | 0.67 g | 0.96 g | 69% | 65 (±2.1) % | 66 (±4.5) % | 84.3% | 70 (±2.2) % | 68 (±2.9) % | 102% | 37.6% | viability at 10 µM [4]: 7.9%; viability at 30 µM [6]: 4.1%
C[C@@H](Nc1nc(N[C@H](C)C(F)(F)F)nc(-c2cccc(Cl)n2)n1)C(F)(F)F [LX-8726, Vorasidenib] | 25% | 2.9 fold | 2.4 fold | 48% | 25% | 64% | 61% | 276% | 2.8 Fold | 2.7 fold | 0.81 g | 1.20 g | 43% | 42 (±2.9) % | 58 (±5.3) % | 52.3% | 36 (±4.3) % | 48 (±4.3) % | 71.7% | 17.5% | 
Cn1cc(C[C@@H](N)C(=O)O)c2ccccc21 [LX-8801, Indoximod] | 35% | 2.9 fold | 1.7 fold | 72% | 33% | 63% | 54% | 205% | 2.1 Fold | 2.6 fold | 0.69 g | 0.94 g | 59% | 44 (±3.0) % | 67 (±4.5) % | 69.1% | 49 (±4.3) % | 53 (±3.5) % | 62.5% | 8.4% | viability at 10 µM [4]: 1.2%
C[C@@H](C(=O)Nc1ccc(Cl)cc1)[C@H]1CC[C@@H](c2ccnc3ccc(F)cc32)CC1 [LX-8805, Linrodostat] | 58% | 2.6 fold | 2.6 fold | 55% | 25% | 67% | 47% | 217% | 1.7 Fold | 1.9 fold | 0.72 g | 0.87 g | 68% | 40 (±2.1) % | 70 (±4.6) % | 99.1% | 60 (±3.9) % | 36 (±3.4) % | 103% | 58.3% | viability at 10 µM [4]: 42.1%; viability at 30 µM [4]: 21.8%; viability at 30 µM [6]: 32.8%
Nc1ccc(/C=C/C(=O)NCc2cc3cc(-c4ccc(C(=O)N5CCC(F)(F)CC5)cc4)cc(-c4ccc(F)cc4)c3o2)cn1 [LX-8812, Padnarsertib] | 62% | 2.0 fold | 2.6 fold | 51% | 53% | 42% | 59% | 188% | 3.4 Fold | 2.9 fold | 0.70 g | 0.96 g | 54% | 67 (±5.6) % | 77 (±6.2) % | 94.6% | 63 (±3.9) % | 64 (±3.1) % | 100% | 61.6% | viability at 10 µM [4]: 49.3%; viability at 30 µM [4]: 29.2%; viability at 30 µM [6]: 24.9%
